Experiments:
[1] = tested on: wild-type SARS-CoV-2 pseudovirus; experiment: microbe, parasite or virus in culture; assay type: cell-based; conditions: for IC50: Severe acute respiratory syndrome-related coronavirus, HEK-293T, n = 5, read-out: IC50, blocking wild-type viral entry
[2] = tested on: omicron SARS-CoV-2 pseudovirus; experiment: microbe, parasite or virus in culture; assay type: cell-based; conditions: Severe acute respiratory syndrome-related coronavirus, HEK-293T; n = 5; read-out: IC50, entry of the omicron pseudovirus

SMILES	IC50 [1] [nM]	IC50 [2] [nM]	maximal inhibition compared with RU [1]
O=c1c2ccccc2nc2n1CCc1c-2[nH]c2ccccc12 [RU, rutaecarpine]	1340	1010	–
O=c1c2ccc(Nc3ccccc3)cc2nc2n1CCc1c-2[nH]c2ccccc12 [RU-75]	460	320	almost double that of RU
O=C1c2ccc(Nc3ccccc3)cc2NC2=NCCc3c2n1c1ccccc31 [RU-184]	210	260	almost double that of RU

From publication PMC11173897, “Computational Docking as a Tool in Guiding the Drug Design of Rutaecarpine Derivatives as Potential SARS-CoV-2 Inhibitors” (Molecules, 2024)
